Measured values as given in US8791132B2, “Compounds and methods for treatment of hypertension” (Medivation Technologies, Inc., priority 2011, dated 2014).
Like-named read-outs stand apart in the source and are kept apart here.

Key:
[1] = biological target: T1, human recombinant adrenergic α1D receptor (Homo sapiens, UniProt P25100); test: Radioligand binding, adrenergic α1D ([3H]Prazosin); conditions: for Percentage inhibition of ligand binding, Adrenergic α1D: 0.1 µM; for inhibition at 0.1 µM: read-out: Percentage inhibition of ligand binding, Adrenergic α1D
T1 construct: expressed in transfected cells; host or cells: HEK-293
T1 sequence (P25100 1-572): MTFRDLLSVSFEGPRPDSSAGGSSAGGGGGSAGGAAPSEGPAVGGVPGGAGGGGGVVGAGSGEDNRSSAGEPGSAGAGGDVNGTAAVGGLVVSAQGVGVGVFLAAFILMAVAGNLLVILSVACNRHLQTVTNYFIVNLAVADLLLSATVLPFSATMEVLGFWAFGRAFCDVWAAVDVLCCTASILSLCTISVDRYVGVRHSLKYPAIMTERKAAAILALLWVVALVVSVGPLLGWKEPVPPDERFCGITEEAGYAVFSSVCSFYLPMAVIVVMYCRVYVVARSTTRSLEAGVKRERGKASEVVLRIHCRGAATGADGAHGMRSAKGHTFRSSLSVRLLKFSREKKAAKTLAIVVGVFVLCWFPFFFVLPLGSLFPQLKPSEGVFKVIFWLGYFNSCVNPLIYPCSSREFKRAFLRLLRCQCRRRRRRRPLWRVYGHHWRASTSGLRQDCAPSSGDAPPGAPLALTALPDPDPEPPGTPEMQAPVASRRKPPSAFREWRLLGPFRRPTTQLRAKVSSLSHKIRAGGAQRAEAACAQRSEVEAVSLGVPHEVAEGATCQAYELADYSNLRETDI
Experimental: Compounds were incubated with 0.6 nM [3H]Prazosin for 60 min at 25° C. Non-specific binding was estimated in the presence of 10 μM phentolamine. Receptor proteins were filtered and washed, the filters were then counted to determine [3H]Prazosin specifically bound. […] Biochemical assay results are presented as the percent inhibition of specific binding in Table B1.

[2] = biological target: T2, human recombinant adrenergic α2A receptor (Homo sapiens, UniProt P08913); test: Radioligand binding, adrenergic α2A ([3H]MK-912); conditions: 0.1 μM compound; for inhibition at 0.1 µM: read-out: Percentage inhibition of ligand binding, Adrenergic α2A
T2 construct: expressed in transfected cells; host or cells: insect Sf9 cells
T2 sequence (P08913 1-465): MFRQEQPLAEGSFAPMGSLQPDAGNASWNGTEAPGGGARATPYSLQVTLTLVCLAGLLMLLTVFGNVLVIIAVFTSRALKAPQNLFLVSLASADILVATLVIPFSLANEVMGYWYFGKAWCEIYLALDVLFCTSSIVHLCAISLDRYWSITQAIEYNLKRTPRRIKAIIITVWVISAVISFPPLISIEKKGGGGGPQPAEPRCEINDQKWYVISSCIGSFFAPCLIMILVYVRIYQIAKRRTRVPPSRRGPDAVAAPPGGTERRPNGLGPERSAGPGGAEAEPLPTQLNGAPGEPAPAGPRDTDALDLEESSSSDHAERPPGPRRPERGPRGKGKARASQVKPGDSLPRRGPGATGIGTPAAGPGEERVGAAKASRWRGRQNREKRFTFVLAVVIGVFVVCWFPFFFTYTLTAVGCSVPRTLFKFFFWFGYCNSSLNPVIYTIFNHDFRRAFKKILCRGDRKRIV
How it was run: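 Receptor expressed in Sf9 cells, in 50 mM Tris-HCl pH 7.4, 12.5 mM MgCl2, 2 mM EDTA; compounds incubated with 1 nM [3H]MK-912 for 60 min at 25 °C.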

[3] = biological target: T3, human recombinant adrenergic α2B receptor (Homo sapiens, UniProt P18089); test: Radioligand binding, adrenergic α2B ([3H]Rauwolscine); conditions: 0.1 μM compound; for inhibition at 0.1 µM: read-out: Percentage inhibition of ligand binding, Adrenergic α2B
T3 construct: expressed in transfected cells; host or cells: CHO-K1
T3 sequence (P18089 1-450): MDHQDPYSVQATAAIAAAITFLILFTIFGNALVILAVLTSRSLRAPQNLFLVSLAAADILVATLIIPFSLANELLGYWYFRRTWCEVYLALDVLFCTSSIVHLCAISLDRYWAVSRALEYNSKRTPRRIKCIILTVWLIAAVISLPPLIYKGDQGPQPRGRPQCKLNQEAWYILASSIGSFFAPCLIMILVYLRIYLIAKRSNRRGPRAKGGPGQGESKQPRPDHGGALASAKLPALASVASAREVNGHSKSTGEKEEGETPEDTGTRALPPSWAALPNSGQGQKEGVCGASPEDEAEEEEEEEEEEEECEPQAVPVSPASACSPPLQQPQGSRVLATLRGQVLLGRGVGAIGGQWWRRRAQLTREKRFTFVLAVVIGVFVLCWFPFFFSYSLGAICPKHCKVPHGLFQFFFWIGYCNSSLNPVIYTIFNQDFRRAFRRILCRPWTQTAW
How it was run: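 Readout: percent inhibition of specific [3H]Rauwolscine binding, measured by filtration and counting. Conditions: CHO-K1 cell-expressed receptor, 2.5 nM radioligand, 60 min, 25° C, Tris-HCl pH 7.4 buffer with MgCl2, EDTA, BSA. Non-specific binding: 10 μM Prazosin.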

[4] = biological target: T4, rat adrenergic α1B receptor (Rattus norvegicus, UniProt P15823); test: Radioligand binding, adrenergic α1B ([3H]Prazosin); conditions: 0.1 μM compound; for inhibition at 0.1 µM: read-out: Percentage inhibition of ligand binding, Adrenergic α1B
T4 construct: rat adrenergic α1B receptor obtained from Wistar Rat liver; from tissue; host or cells: Wistar rat liver
T4 sequence (P15823 1-515): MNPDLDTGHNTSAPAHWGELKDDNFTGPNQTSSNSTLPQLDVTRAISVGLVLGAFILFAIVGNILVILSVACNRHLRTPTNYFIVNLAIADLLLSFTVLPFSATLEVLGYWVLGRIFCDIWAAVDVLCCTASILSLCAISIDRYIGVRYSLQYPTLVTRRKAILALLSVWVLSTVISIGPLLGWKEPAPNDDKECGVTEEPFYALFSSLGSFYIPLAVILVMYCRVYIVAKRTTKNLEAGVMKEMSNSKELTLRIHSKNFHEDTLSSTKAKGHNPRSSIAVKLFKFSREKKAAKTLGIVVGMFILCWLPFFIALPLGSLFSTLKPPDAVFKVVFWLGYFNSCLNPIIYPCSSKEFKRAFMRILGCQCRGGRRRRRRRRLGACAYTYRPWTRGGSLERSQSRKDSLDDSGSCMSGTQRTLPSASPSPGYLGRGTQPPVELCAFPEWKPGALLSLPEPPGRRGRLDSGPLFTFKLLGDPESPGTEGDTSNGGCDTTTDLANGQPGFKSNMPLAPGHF
How it was run: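 Rat α1B receptor from Wistar rat liver was incubated with 0.25 nM [3H]prazosin for 60 min at 25 °C in 50 mM Tris-HCl, pH 7.4, 0.5 mM EDTA. Non-specific binding was defined with 10 μM phentolamine. Bound radioligand was measured by filtration and counting, reported as percent inhibition of specific binding.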

Row | Percentage inhibition of ligand binding, Adrenergic α1D ([1]; 0.1 μM compound) [%] | Percentage inhibition of ligand binding, Adrenergic α2A ([2]; 0.1 µM) [%] | Percentage inhibition of ligand binding, Adrenergic α1B ([4]; 0.1 µM) [%] | Compound | other results
1 | 88 | – | – | Cc1ccc2c(c1)c1c(n2CC(C)c2ccc(F)cc2)CCN(C)C1 (single isomer, unassigned) [288a] | inhibition at 0.1 µM [3]: 104%
2 | 17 | – | – | Cc1ccc2c(c1)c1c(n2CC(C)c2ccc(F)cc2)CCN(C)C1 (single isomer, unassigned) [288b] | Percentage inhibition of ligand binding, Adrenergic α2A [2]: 67%; Percentage inhibition of ligand binding, Adrenergic α1B [4]: 39%
3 | 57 | – | 51 | Cc1ccc2c(c1)c1c(n2CC(C)c2ccc(C)nc2)CCN(C)C1 (single isomer, unassigned) [289a] | inhibition at 0.1 µM [2]: 60%
4 | −2 | 53 | 12 | Cc1ccc2c(c1)c1c(n2CC(C)c2ccc(C)nc2)CCN(C)C1 (single isomer, unassigned) [289b] | Percentage inhibition of ligand binding, Adrenergic α2B [3]: 54%

Continued, molecule first:

Row | Compound | Percentage inhibition of ligand binding, Adrenergic α1D ([1]; 0.1 μM compound) [%] | Percentage inhibition of ligand binding, Adrenergic α2A ([2]; 0.1 µM) [%] | Percentage inhibition of ligand binding, Adrenergic α1B ([4]; 0.1 µM) [%] | other results
5 | CC(Cn1c2c(c3ccccc31)CN(C)CC2)c1ccc(F)cc1 (single isomer, unassigned) [272a] | 12 | 33 | – | Percentage inhibition of ligand binding, Adrenergic α2B [3]: −10%; inhibition at 0.1 µM [4]: 27%
6 | CC(Cn1c2c(c3ccccc31)CN(C)CC2)c1ccc(F)cc1 (single isomer, unassigned) [272b] | 36 | 68 | 30 | –
7 | CCCCC(O)(Cn1c2c(c3cc(Cl)ccc31)CN(C)CC2)c1ccc(F)cc1 (stereo not drawn) [33a] | – | – | – | inhibition at 0.1 µM ([1]; compound at 0.1 μM, [3H]Prazosin, repeat assays, each datapoint shown): 23%
8 | COc1ccc(C(C)(O)Cn2c3c(c4cc(C)ccc42)CN(C)CC3)cc1 (stereo not drawn) [254a] | – | – | – | inhibition at 0.1 µM ([1]; 0.1 μM compound): 36%; inhibition at 0.1 µM [2]: 58%; inhibition at 0.1 µM [3]: 85%; inhibition at 0.1 µM [4]: 75%
